Results published in US4882313A, “Carboxamide derivatives of glycopeptides” (SmithKline Beckman Corporation, priority 1987, dated 1989).

Experiments:
[1] = test system: Staphylococcus haemolyticus; assay: standard microtiter assay, minimum inhibitory concentration; format: cell-based; conditions: Test Organism 7, Staphylococcus haemolyticus
Source text: (§1) Representative results of standard microtiter assays are reported in Table 1 which follows, as the minimum inhibitory concentration of antibiotic (mg/ml). In Table 1, test organisms 1-5 were different strains of Staphylococcus aureus; 6, 8, 11, 13 and 14 were different strains of Staphylococcus epidermidis; 7 was a Staphylococcus haemolyticus; 9 and 10 were different strains of Streptococcus faecalis; and 12 was a Staphylococcus saprophyticus.

[2] = test system: Staphylococcus saprophyticus; assay: as above; format: cell-based; conditions: Test Organism 12, Staphylococcus saprophyticus
Source text: as §1

Staphylococcus aureus = assay: as above; format: cell-based; conditions: for minimum inhibitory concentration of antibiotic, Test Organism 1: Test Organism 1, strain of Staphylococcus aureus; for minimum inhibitory concentration of antibiotic, Test Organism 2: Test Organism 2, strain of Staphylococcus aureus; for minimum inhibitory concentration of antibiotic, Test Organism 3: Test Organism 3, strain of Staphylococcus aureus; for minimum inhibitory concentration of antibiotic, Test Organism 4: Test Organism 4, strain of Staphylococcus aureus; for minimum inhibitory concentration of antibiotic, Test Organism 5: Test Organism 5, strain of Staphylococcus aureus
Source text: as §1

Streptococcus faecalis = assay: as above; format: cell-based; conditions: for minimum inhibitory concentration of antibiotic, Test Organism 9: Test Organism 9, strain of Streptococcus faecalis; for minimum inhibitory concentration of antibiotic, Test Organism 10: Test Organism 10, strain of Streptococcus faecalis
Source text: as §1

[3] = test system: Staphylococcus epidermidis; assay: as above; format: cell-based; parameters: minimum inhibitory concentration of antibiotic, Test Organism 8: unit not given here; conditions: for minimum inhibitory concentration of antibiotic, Test Organism 6: Test Organism 6, strain of Staphylococcus epidermidis; for minimum inhibitory concentration of antibiotic, Test Organism 8: Test Organism 8, strain of Staphylococcus epidermidis; for minimum inhibitory concentration of antibiotic, Test Organism 11: Test Organism 11, strain of Staphylococcus epidermidis; for minimum inhibitory concentration of antibiotic, Test Organism 13: Test Organism 13, strain of Staphylococcus epidermidis
Source text: as §1

[4] = pI (analytical data, Table 2); format: physicochemical
Source text: Using substantially the procedures of both Examples 1 and 2, the compounds of Examples 3-15 were obtained by using the appropriate glycopeptide and amine starting materials.

Structure (SMILES) | minimum inhibitory concentration of antibiotic, Test Organism 7 [1] [µg/mL] | minimum inhibitory concentration of antibiotic, Test Organism 12 [2] [µg/mL] | minimum inhibitory concentration of antibiotic, Test Organism 1 (Staphylococcus aureus) [µg/mL] | minimum inhibitory concentration of antibiotic, Test Organism 2 (Staphylococcus aureus) [µg/mL] | minimum inhibitory concentration of antibiotic, Test Organism 3 (Staphylococcus aureus) [µg/mL] | minimum inhibitory concentration of antibiotic, Test Organism 4 (Staphylococcus aureus) [µg/mL] | minimum inhibitory concentration of antibiotic, Test Organism 5 (Staphylococcus aureus) [µg/mL] | minimum inhibitory concentration of antibiotic, Test Organism 9 (Streptococcus faecalis) [µg/mL] | minimum inhibitory concentration of antibiotic, Test Organism 10 (Streptococcus faecalis) [µg/mL] | minimum inhibitory concentration of antibiotic, Test Organism 6 [3] [µg/mL] | minimum inhibitory concentration of antibiotic, Test Organism 8 [3] | minimum inhibitory concentration of antibiotic, Test Organism 11 [3] [µg/mL] | minimum inhibitory concentration of antibiotic, Test Organism 13 [3] [µg/mL] | minimum inhibitory concentration of antibiotic, Test Organism 14 ([3]; Test Organism 14, strain of Staphylococcus epidermidis) [µg/mL] | pI [4]
CCCCCCCCCC(=O)NC1C(Oc2c3cc4cc2Oc2c(Cl)cc(cc2Cl)C(O)C2NC(=O)C(NC(=O)C4NC(=O)C4NC(=O)C(NC(=O)C(NC)c5ccc(O)c(c5)Oc5cc(O)c(Cl)c4c5)C(O)c4ccc(c(Cl)c4)O3)c3ccc(O)c(c3)-c3c(OC4OC(CO)C(O)C(O)C4O)cc(O)cc3C(C(=O)NN)NC2=O)OC(C(=O)NN)C(O)C1O (centres unmarked) [Compound 2k, Ardacin A dihydrazide] | 12500 | 6300 | 3100 | 3100 | 1600 | 6300 | 3100 | 400 | 100 | 12500 | 12.5 | 12500 | 3100 | 3100 | 7.0
CCCCCCCCCC(=O)NC1C(Oc2c3cc4cc2Oc2c(Cl)cc(cc2Cl)C(O)C2NC(=O)C(NC(=O)C4NC(=O)C4NC(=O)C(NC(=O)C(NC)c5ccc(O)c(c5)Oc5cc(O)c(Cl)c4c5)C(O)c4ccc(c(Cl)c4)O3)c3ccc(O)c(c3)-c3c(OC4OC(CO)C(O)C(O)C4O)cc(O)cc3C(C(=O)NCCO)NC2=O)OC(C(=O)NCCO)C(O)C1O (centres unmarked) [Compound 2l, Ardacin A-di-(2-hydroxyethyl amide)] | 800 | 800 | 200 | 200 | 200 | 400 | 400 | 100 | 100 | 1600 | 0.4 | 800 | 200 |  | 7.3
